Data: patent publication US20160108406A1, “METHOD OF REGULATING CFTR EXPRESSION AND PROCESSING” (UNIVERSITY OF IOWA RESEARCH FOUNDATION, priority 2014, published 2016)

How the values were obtained:
ΔF508-CFTR [1] = biological target: T1, ΔF508-CFTR (Homo sapiens, UniProt P13569, DEL508-508); experiment: CFTR ubiquitination measurement (anti-HA IP, anti-ubiquitin blot); type: cell-based; conditions: treatment alone; HeLa-ΔF508-CFTR-HA cells; 72 hrs; MG-132 10 μM last hour; relative to siScr
T1 construct: Here we studied native CFTR, SYVN1 and AMFR gene products in a relevant CF airway epithelial cell line; endogenous in cells; host or cells: CFBE41o- cells (also as polarized ALI cultures)
T1 sequence (P13569 with tags, fused parts or gaps DEL508-508): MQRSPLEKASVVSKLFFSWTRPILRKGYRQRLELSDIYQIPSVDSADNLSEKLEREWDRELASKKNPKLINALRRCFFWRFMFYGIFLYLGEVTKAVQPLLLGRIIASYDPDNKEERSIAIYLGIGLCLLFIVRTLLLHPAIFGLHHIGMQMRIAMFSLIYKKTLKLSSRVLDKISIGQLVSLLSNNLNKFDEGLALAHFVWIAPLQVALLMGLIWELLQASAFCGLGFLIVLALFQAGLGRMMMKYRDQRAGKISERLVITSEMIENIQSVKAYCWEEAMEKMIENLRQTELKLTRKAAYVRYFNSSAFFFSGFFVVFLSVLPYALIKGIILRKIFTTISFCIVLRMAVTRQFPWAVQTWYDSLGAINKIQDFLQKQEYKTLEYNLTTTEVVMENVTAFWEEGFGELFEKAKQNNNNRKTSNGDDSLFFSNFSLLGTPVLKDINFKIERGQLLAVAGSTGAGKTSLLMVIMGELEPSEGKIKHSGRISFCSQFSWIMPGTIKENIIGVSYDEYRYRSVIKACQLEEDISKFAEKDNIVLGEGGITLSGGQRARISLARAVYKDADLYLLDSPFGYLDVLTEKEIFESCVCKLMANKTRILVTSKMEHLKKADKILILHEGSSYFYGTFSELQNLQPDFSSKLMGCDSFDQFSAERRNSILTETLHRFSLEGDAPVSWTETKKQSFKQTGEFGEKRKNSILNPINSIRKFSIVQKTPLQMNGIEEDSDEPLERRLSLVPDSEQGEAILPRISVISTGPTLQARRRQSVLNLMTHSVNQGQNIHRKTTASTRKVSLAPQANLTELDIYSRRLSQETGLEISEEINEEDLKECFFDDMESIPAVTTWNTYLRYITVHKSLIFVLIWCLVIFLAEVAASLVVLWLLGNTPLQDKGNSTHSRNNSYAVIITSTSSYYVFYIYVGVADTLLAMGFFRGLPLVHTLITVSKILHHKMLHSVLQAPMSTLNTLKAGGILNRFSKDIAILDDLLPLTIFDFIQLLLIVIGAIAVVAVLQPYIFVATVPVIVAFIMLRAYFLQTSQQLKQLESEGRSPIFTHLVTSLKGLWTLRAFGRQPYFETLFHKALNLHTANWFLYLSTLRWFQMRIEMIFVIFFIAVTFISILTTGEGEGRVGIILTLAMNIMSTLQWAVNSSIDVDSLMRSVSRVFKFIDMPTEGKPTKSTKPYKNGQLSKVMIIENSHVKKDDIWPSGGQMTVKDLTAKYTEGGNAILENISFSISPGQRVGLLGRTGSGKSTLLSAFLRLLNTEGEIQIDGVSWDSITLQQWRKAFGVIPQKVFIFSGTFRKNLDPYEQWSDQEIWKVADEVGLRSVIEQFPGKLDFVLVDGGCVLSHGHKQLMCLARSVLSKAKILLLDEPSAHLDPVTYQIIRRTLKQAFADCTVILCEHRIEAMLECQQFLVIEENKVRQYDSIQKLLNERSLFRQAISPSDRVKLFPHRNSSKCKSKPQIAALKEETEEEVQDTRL
Description: Cells were treated with 10 μM MG-132 in the last 1-hour of incubation, and then lysed in lysis buffer (1% Triton, 25 mM Tris pH 7.4, 150 mM NaCl, protease inhibitors (cOmplete™, mini, EDTA-free, Roche), 5 mM N-ethylmaleimide (NEM) and 20 μM MG-132) for 30 min at 4° C. The lysates were centrifuged at 14,000 rpm for 20 min at 4° C., and the supernatant quantified by BCA Protein Assay kit (Pierce). CFTR was precipitated with the anti-HA antibody. The immunoprecipitates were analyzed by immunoblotting with anti-Ub and anti-HA antibodies. CFTR ubiquitination level with molecular masses >180 kDa was measured by densitometry and normalized for the CFTR level in the precipitate.
Immunoprecipitation (IP) experiments were performed in HeLa cells stably expressing ΔF508-CFTR-HA. To IP ΔF508-CFTR, cells were lysed (as described above), and supernatant (20-50 μg of protein) was incubated with either anti-HA (to IP CFTR) or anti-AMFR for 1 h at 4° C., followed by incubation with protein G-agarose (Invitrogen) for 1 h at 4° C. Immunoprecipitates were washed 4 times with lysis buffer and eluted in 6× sample-SDS buffer. Samples were analyzed by immunoblotting as described above.

ΔF508-CFTR [2] = conditions: primary CF airway epithelia; reference 18; cited from earlier work

Compound | ΔF508-CFTR ubiquitination (ΔF508-CFTR [1]) | ΔF508-CFTR expression and Cl− transport (ΔF508-CFTR [2])
O=C(Nc1ncc(C(c2ccccc2Cl)N2CCC(O)C2)s1)C1(c2ccc3c(c2)OCO3)CC1 (centres unmarked) [C18, 1-(benzo[d][1,3]dioxol-5-yl)-N-(5-((2-chlorophenyl)(3-hydroxypyrrolidin-1-yl)methyl)thiazol-2-yl)cyclopropanecarboxamide] | little impact on ΔF508-CFTR ubiquitination levels | –
miR-138 mimic: synthetic nucleic acid with miR-138-like activity, sense SEQ ID NO: 4, antisense SEQ ID NO: 5 | – | concomitantly increased ΔF508-CFTR expression and Cl^− transport
